Data from patent US7628991B2, “Use of Lactobacillus farciminis for the prevention or treatment of digestive pathologies” (Institute National de la Recherche Agronomique (INRA), priority 2002, dated 2009).

Experiments:
[1] = test system: colonic inflammation induced by TNBS/ethanol; test: Macroscopic lesion score (MLS) of the colon, TNBS/ethanol-induced colitis (Example 1); type: in vivo, WISTAR rats; conditions: rats instilled with TNBS/ethanol, 4 days after instillation; daily intracolonic infusion; SNP 1 mg/kg/day, Hb 200 mg/kg/day
Excerpt: (§1) This colitis is characterized by an increase in myeloperoxidase (MPO) activity, a marker of the degree of infiltration of polynuclear neutrophils in the colonic mucosa, and by the increase in the macroscopic lesion score (MLS) taking into account the seriousness and the extent of the macroscopic lesions appearing, the presence and seriousness of adherences and the presence or nonpresence of diarrhea in the colon.
For the study of the effects of SNP, 7 groups of WISTAR rats of 200-250 grams were provided, under anesthetic, with an intracolonic catheter (+2 cm from the caeco-colonic junction) exteriorized at the level of the dorsoscapular region. At D+5, the rats receive an intracolonic instillation of 80 mg/kg/day of TNBS/ethanol (groups 4-7) or of a 0.9% NaCl solution (groups 1-3). 4 hours after the instillation, the rats are infused at a flow rate of 250 μl/hour with 1 mg/kg/day of SNP (groups 2 and 5), or 200 mg/kg/day of Hb (groups 3 and 7), or an SNP+Hb mixture (group 6), or a 0.9% NaCl solution (groups 1 and 4), for 4 days. […]
The macroscopic lesion score (MLS) is determined on isolated colonic samples as described by WALLACE et al., (Gastroenterology, 102, 18-27, 1992) according to the assessment grid below: […]

[2] = test system: colonic inflammation induced by TNBS/ethanol; test: Myeloperoxidase (MPO) activity of the colon wall, TNBS/ethanol-induced colitis (Example 1); type: in vivo, WISTAR rats; conditions: rats without TNBS/ethanol (0.9% NaCl instillation); intracolonic infusion for 4 days
Excerpt: as §1
The effects of a treatment with a nitric oxide donor, sodium nitroprusside (SNP), or with L. farciminis on a TNBS-induced colitis in rats were compared. Moreover, the effective role of exogenous nitric oxide in these effects was evaluated using an NO scavenger, hemoglobin (Hb). […]
The myeloperoxidase (MPO) activity is determined on colon samples isolated according to the protocol described by BRADLEY et al. (J. Invest. Dermatol., 78, 206-209, 1982). […]
The MPO activity is determined by spectrophotometry. […] The changes in absorbance. (450 nm, 25° C.) were determined by kinetic spectrophotometry of 2 minutes, according to the balanced equation for the enzymatic reaction catalyzed by MPO: H2O2+Cl^−=H2O+HOCl (orange color), and expressed as MPO units.
One MPO activity unit is defined as the quantity of MPO degrading 1 μmol of hydrogen peroxide per minute per milliliter at 25° C. […]

## hemoglobin [Hb]
[1]
  Macroscopic lesion score (MLS): 5.8±1.3
[2]
  MPO activity of the colon wall: 426±117 MPO U/g of proteins
